# According to US20080009418A1, “Selective Inhibitors” (Alchemia LTD., priority 2004, published 2008):
# Columns and labels:
# [1] = biological target: T1, Human melanin-concentrating hormone (MCH1) (Homo sapiens, UniProt Q99705); assay: Radioligand binding, human melanin-concentrating hormone MCH1 membranes, FlashPlate, [125I]-S36057; settings: compound at 10 μM
# T1 construct: purchased Perkin Elmer Biosignal
# How it was run: (§1)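 Cloned human receptor membranes were coated onto FlashPlate wells and incubated with radioligand and compound (added from a 0.5 mM DMSO daughter plate) for 1 hour at room temperature in the dark. Scintillation counting gave percent inhibition, with DMSO defining total and reference ligand defining non-specific binding.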
# Human neurokinin (NK1) = biological target: T2, Human neurokinin (NK1) (Homo sapiens, UniProt P25103); assay: Radioligand binding, human neurokinin NK1 membranes, filtration, [125I]-Substance P; settings: compound at 10 μM, [125I]-Substance P
# T2 construct: purchased Perkin Elmer Biosignal
# T2 sequence (P25103 whole entry): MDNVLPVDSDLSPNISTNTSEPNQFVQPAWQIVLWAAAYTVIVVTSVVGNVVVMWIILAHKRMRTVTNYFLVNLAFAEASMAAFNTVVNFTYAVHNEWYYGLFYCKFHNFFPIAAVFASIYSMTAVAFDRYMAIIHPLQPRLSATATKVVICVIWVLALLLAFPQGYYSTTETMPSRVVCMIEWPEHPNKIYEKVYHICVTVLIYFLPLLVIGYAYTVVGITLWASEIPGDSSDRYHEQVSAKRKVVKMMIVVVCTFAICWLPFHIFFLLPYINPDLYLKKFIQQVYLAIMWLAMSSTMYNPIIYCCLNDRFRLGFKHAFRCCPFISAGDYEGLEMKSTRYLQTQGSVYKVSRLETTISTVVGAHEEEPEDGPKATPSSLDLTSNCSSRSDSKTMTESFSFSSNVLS
# How it was run: (§2)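 Membranes from cloned human receptors were incubated with compound and radioligand for 1 hour at room temperature. Bound ligand was collected on 0.3% PEI-soaked filters, washed with cold 50 mM Tris-HCl pH 7.4, and counted by scintillation. Percent inhibition was computed against DMSO totals and reference-ligand nonspecific wells.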
# Human δ-opioid (DOP) = biological target: T3, Human δ-opioid (DOP) (Homo sapiens, UniProt P41143); assay: Radioligand binding, human δ-opioid (DOP) membranes, FlashPlate, [3H]-Bremazocine; settings: compound at 10 μM, [3H]-Bremazocine
# T3 construct: purchased Perkin Elmer Biosignal
# T3 sequence (P41143 whole entry): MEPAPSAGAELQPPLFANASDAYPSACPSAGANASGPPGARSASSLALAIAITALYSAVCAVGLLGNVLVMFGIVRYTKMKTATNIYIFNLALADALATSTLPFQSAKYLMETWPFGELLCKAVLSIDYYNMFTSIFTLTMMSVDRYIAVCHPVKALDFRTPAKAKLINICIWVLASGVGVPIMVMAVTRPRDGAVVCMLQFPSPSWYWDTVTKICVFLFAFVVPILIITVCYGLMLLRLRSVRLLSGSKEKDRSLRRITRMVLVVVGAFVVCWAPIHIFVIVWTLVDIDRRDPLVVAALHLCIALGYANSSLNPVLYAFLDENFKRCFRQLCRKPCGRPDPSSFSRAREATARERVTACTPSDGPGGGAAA
# How it was run: as §1
# Human opioid (ORL1) = biological target: T4, Human opioid (ORL1) (Homo sapiens, UniProt P41146); assay: Radioligand binding, human opioid ORL1 membranes, FlashPlate, [125I]-Nociceptin; settings: compound at 10 μM, [125I]-Nociceptin
# T4 construct: purchased Perkin Elmer Biosignal
# T4 sequence (P41146 whole entry): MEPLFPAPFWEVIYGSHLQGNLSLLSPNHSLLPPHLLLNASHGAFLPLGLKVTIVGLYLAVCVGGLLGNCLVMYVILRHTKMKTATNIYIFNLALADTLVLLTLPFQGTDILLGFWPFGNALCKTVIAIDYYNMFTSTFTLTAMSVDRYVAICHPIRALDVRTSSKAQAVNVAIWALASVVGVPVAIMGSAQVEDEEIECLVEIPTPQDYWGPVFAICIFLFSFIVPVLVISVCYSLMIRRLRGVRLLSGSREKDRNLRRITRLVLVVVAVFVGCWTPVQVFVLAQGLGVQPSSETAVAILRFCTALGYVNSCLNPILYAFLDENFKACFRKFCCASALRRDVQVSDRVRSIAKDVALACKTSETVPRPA
# How it was run: as §1
# Mouse urotensin (mUR2) = biological target: T5, Mouse urotensin (mUR2) (Mus musculus, UniProt Q8VIH9); assay: Radioligand binding, mouse urotensin mUR2 membranes, FlashPlate, [125I]-Urotensin II; settings: compound at 10 μM, [125I]-Urotensin II
# T5 construct: purchased Perkin Elmer Biosignal
# T5 sequence (Q8VIH9 1-385): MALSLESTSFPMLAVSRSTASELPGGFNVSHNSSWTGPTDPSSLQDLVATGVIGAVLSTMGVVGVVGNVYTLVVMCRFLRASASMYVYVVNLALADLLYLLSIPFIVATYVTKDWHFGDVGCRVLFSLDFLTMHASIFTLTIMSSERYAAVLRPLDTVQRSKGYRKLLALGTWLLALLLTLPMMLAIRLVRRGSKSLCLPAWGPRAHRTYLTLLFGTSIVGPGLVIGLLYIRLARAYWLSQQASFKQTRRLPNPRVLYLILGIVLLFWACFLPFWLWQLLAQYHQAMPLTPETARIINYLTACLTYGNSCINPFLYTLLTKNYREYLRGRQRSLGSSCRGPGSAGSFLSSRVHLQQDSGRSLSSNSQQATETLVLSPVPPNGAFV
# How it was run: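 Cloned mouse urotensin (mUR2) receptor membranes from Perkin Elmer Biosignal were immobilized in FlashPlate microplates using a proprietary coating. Each well got 19.5 μl buffer, then 0.5 μl of DMSO, reference ligand, or compound. Adding 5 μl of [125I]-Urotensin II, diluted to 5× final concentration in binding buffer, started binding. Plates were sealed with TopSeal-A and incubated 1 hour at room temperature in the dark. Wells were counted for 30 seconds each on a TopCount after a 60-second delay, and percentage inhibition was calculated.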
# Human μ-opioid (MOP) = biological target: T6, Human μ-opioid (MOP) (Homo sapiens, UniProt P35372); assay: Radioligand binding, human μ-opioid (MOP) membranes, FlashPlate, [3H]-Naloxone; settings: compound at 10 μM, [3H]-Naloxone
# T6 construct: purchased Perkin Elmer Biosignal
# T6 sequence (P35372 whole entry): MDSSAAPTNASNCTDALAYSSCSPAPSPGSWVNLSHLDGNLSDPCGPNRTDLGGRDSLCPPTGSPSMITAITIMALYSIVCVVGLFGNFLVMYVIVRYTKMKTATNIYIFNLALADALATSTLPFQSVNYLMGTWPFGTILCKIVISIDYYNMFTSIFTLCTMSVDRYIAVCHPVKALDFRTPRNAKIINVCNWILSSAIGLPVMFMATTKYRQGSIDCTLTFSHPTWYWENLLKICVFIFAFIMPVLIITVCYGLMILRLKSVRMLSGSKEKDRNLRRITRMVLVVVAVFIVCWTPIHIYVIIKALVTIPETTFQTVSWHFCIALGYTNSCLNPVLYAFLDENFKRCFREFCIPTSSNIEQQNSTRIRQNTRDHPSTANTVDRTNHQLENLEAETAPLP
# How it was run: as §1
# Human Melanocortin (MC3) = biological target: T7, Human Melanocortin (MC3) (Homo sapiens, UniProt P41968); assay: Radioligand binding, human melanocortin MC3 membranes, FlashPlate, [125I]-NDP-αMSH; settings: compound at 10 μM, [125I]-NDP-αMSH
# T7 construct: purchased Perkin Elmer Biosignal
# T7 sequence (P41968 whole entry): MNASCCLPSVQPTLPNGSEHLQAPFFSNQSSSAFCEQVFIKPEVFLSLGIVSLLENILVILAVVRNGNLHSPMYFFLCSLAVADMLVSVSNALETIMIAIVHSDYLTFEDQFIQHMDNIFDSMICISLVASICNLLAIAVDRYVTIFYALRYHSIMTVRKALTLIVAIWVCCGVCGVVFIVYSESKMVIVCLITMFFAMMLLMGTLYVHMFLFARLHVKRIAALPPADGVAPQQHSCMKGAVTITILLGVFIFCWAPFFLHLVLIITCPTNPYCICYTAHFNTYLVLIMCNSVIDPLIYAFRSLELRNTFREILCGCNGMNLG
# How it was run: as §1
# Human melanocortin (MC5) = biological target: T8, Human melanocortin (MC5) (Homo sapiens, UniProt P33032); assay: Radioligand binding, human melanocortin MC5 membranes, FlashPlate, [125I]-NDP-αMSH; settings: compound at 10 μM, [125I]-NDP-αMSH
# T8 construct: purchased Perkin Elmer Biosignal
# T8 sequence (P33032 whole entry): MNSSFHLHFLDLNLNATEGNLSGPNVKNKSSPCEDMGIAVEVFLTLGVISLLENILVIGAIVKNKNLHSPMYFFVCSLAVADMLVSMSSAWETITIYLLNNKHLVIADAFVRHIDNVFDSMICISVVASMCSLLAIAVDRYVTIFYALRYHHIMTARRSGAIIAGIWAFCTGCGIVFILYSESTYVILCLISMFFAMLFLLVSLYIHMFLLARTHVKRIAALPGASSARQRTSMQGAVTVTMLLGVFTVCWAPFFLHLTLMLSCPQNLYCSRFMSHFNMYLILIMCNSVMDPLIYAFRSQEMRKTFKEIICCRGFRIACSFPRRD
# How it was run: as §1
# Human κ-Opioid (KOP) = biological target: T9, Human κ-Opioid (KOP) (Homo sapiens, UniProt P41145); assay: Radioligand binding, human κ-opioid (KOP) membranes, filtration, [3H]-Diprenorphine; settings: compound at 10 μM, [3H]-Diprenorphine
# T9 construct: purchased Perkin Elmer Biosignal
# T9 sequence (P41145 whole entry): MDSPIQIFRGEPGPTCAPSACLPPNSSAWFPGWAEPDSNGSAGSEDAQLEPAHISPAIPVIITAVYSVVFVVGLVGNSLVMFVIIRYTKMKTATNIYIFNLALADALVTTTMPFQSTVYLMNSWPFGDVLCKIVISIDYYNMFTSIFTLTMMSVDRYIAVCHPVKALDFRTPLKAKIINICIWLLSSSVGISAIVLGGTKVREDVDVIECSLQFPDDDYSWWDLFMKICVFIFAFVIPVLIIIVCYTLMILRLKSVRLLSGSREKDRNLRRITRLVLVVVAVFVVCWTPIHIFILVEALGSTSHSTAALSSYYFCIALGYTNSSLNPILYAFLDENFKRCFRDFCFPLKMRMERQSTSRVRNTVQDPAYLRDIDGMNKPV
# How it was run: as §2
# Human Melanocortin (MC4) = biological target: T10, Human Melanocortin (MC4) (Homo sapiens, UniProt P32245); assay: Radioligand binding, human melanocortin MC4 membranes, FlashPlate, [125I]-NDP-αMSH; settings: compound at 10 μM, [125I]-NDP-αMSH
# T10 construct: purchased Perkin Elmer Biosignal
# T10 sequence (P32245 whole entry): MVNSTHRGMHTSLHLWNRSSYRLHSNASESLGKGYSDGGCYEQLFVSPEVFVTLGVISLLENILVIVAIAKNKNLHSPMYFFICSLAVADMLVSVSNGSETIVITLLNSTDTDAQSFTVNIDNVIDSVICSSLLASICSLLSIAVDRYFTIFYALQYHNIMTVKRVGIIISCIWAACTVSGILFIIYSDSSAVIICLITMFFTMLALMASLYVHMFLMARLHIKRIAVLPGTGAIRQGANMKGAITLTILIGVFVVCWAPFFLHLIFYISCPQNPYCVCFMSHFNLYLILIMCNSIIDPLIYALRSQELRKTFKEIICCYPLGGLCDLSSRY
# How it was run: as §1
# [2] = biological target: T11, Human neuropeptide Y (NPY-Y1) (Homo sapiens, UniProt P25929); assay: Radioligand binding, human neuropeptide Y NPY-Y1 membranes, FlashPlate, [125I]-PYY; settings: compound at 10 μM, [125I]-PYY
# T11 construct: purchased Perkin Elmer Biosignal
# T11 sequence (P25929 1-384): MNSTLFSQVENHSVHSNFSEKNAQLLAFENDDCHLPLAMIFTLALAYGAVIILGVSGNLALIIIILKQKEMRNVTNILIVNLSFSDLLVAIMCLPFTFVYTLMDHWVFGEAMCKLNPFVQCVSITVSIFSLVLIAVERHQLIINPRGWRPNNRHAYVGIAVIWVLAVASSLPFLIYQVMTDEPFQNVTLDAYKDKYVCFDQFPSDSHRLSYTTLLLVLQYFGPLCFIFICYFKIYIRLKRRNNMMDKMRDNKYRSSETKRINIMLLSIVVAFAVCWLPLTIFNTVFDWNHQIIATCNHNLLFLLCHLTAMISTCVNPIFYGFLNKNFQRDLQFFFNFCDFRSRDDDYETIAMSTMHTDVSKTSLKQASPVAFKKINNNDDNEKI
# How it was run: as §1
# T1 sequence (Q99705 whole entry): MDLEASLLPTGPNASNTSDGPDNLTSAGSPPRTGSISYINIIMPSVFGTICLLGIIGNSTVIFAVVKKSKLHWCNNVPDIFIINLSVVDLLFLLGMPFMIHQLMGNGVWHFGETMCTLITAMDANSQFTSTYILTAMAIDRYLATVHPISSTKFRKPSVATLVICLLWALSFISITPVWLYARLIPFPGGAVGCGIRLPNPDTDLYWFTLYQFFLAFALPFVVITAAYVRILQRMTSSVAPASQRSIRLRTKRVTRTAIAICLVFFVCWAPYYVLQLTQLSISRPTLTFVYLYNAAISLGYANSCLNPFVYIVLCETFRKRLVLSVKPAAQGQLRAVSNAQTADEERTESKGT
smiles,measurement,setting,value
NCCC(=O)N[C@H]1C(OCc2ccc3ccccc3c2)O[C@H](COCc2ccccc2)[C@@H](O)[C@@H]1OCc1ccccc1 (stereo partly drawn) [compound 450],A6: inhibition of radioligand binding,"[1]; [125I]-S36057, human MCH1 membranes",− (“−” indicates less than 50% inhibition at 10 μM)
same,A8: inhibition of radioligand binding,Human neurokinin (NK1); human NK1 membranes,+ (“+” indicates greater than 50% inhibition at 10 μM)
same,A1: inhibition of radioligand binding,Human δ-opioid (DOP); human DOP membranes,− (“−” indicates less than 50% inhibition at 10 μM)
same,A10: inhibition of radioligand binding,Human opioid (ORL1); human ORL1 membranes,− (“−” indicates less than 50% inhibition at 10 μM)
same,A11: inhibition of radioligand binding,Mouse urotensin (mUR2); mouse mUR2 membranes,− (“−” indicates less than 50% inhibition at 10 μM)
same,A7: inhibition of radioligand binding,Human μ-opioid (MOP); human MOP membranes,− (“−” indicates less than 50% inhibition at 10 μM)
same,A3: inhibition of radioligand binding,Human Melanocortin (MC3); human MC3 membranes,− (“−” indicates less than 50% inhibition at 10 μM)
same,A5: inhibition of radioligand binding,Human melanocortin (MC5); human MC5 membranes,− (“−” indicates less than 50% inhibition at 10 μM)
same,A2: inhibition of radioligand binding,Human κ-Opioid (KOP); human KOP membranes,− (“−” indicates less than 50% inhibition at 10 μM)
same,A4: inhibition of radioligand binding,Human Melanocortin (MC4); human MC4 membranes,− (“−” indicates less than 50% inhibition at 10 μM)
same,A9: inhibition of radioligand binding,[2]; human NPY-Y1 membranes,− (“−” indicates less than 50% inhibition at 10 μM)
[N-]=[N+]=N[C@H]1C(OCCNC(=N)N)O[C@H](COCc2ccccc2)[C@@H](O)[C@@H]1OCc1ccc2ccccc2c1 (stereo partly drawn) [compound 127],"A6 radioligand binding, percentage inhibition",[1]; [125I]-S36057,− (“−” indicates less than 50% inhibition at 10 μM)
same,"A8 radioligand binding, percentage inhibition",Human neurokinin (NK1),+ (“+” indicates greater than 50% inhibition at 10 μM)
same,"A1 radioligand binding, percentage inhibition",Human δ-opioid (DOP),− (“−” indicates less than 50% inhibition at 10 μM)
same,"A10 radioligand binding, percentage inhibition",Human opioid (ORL1),− (“−” indicates less than 50% inhibition at 10 μM)
same,"A11 radioligand binding, percentage inhibition",Mouse urotensin (mUR2),− (“−” indicates less than 50% inhibition at 10 μM)
same,"A7 radioligand binding, percentage inhibition",Human μ-opioid (MOP),− (“−” indicates less than 50% inhibition at 10 μM)
same,"A3 radioligand binding, percentage inhibition",Human Melanocortin (MC3),− (“−” indicates less than 50% inhibition at 10 μM)
same,"A5 radioligand binding, percentage inhibition",Human melanocortin (MC5),+ (“+” indicates greater than 50% inhibition at 10 μM)
same,"A2 radioligand binding, percentage inhibition",Human κ-Opioid (KOP),− (“−” indicates less than 50% inhibition at 10 μM)
same,"A4 radioligand binding, percentage inhibition",Human Melanocortin (MC4),+ (“+” indicates greater than 50% inhibition at 10 μM)
same,"A9 radioligand binding, percentage inhibition",[2],− (“−” indicates less than 50% inhibition at 10 μM)
"NCCC(=O)NC1C(OCc2ccc(Cl)cc2)OC(COCc2ccc3ccccc3c2)C(O)C1OCc1ccccc1 (single isomer, unassigned) [compound 484]","A6: inhibition of radioligand binding, human melanin-concentrating hormone (MCH1)",[1]; [125I]-S36057,− (“−” indicates less than 50% inhibition at 10 μM)
same,"A8: inhibition of radioligand binding, human neurokinin (NK1)",Human neurokinin (NK1),+ (“+” indicates greater than 50% inhibition at 10 μM)
same,"A1: inhibition of radioligand binding, human δ-opioid (DOP)",Human δ-opioid (DOP),− (“−” indicates less than 50% inhibition at 10 μM)
same,"A10: inhibition of radioligand binding, human opioid (ORL1)",Human opioid (ORL1),− (“−” indicates less than 50% inhibition at 10 μM)
same,"A11: inhibition of radioligand binding, mouse urotensin (mUR2)",Mouse urotensin (mUR2),− (“−” indicates less than 50% inhibition at 10 μM)
same,"A7: inhibition of radioligand binding, human μ-opioid (MOP)",Human μ-opioid (MOP),− (“−” indicates less than 50% inhibition at 10 μM)
same,"A3: inhibition of radioligand binding, human melanocortin (MC3)",Human Melanocortin (MC3),− (“−” indicates less than 50% inhibition at 10 μM)
same,"A5: inhibition of radioligand binding, human melanocortin (MC5)",Human melanocortin (MC5),+ (“+” indicates greater than 50% inhibition at 10 μM)
same,"A2: inhibition of radioligand binding, human κ-opioid (KOP)",Human κ-Opioid (KOP),− (“−” indicates less than 50% inhibition at 10 μM)
same,"A4: inhibition of radioligand binding, human melanocortin (MC4)",Human Melanocortin (MC4),− (“−” indicates less than 50% inhibition at 10 μM)
same,"A9: inhibition of radioligand binding, human neuropeptide Y (NPY-Y1)",[2],− (“−” indicates less than 50% inhibition at 10 μM)
